Measurements from patent US10174009B2, “Tricyclic sulphonamide compounds and methods of making and using same” (Zafgen, Inc., priority 2012, dated 2019).

Target: T1, recombinant human MetAP2 (Homo sapiens, UniProt P50579)
T1 construct: made in house; host or cells: Sf9 insect cells
Test: Inhibition of recombinant human MetAP2 activity (MAS substrate, amino acid oxidase/Amplex red fluorescence)
Assay type: biochemical
Settings: manganese enzyme, 30 minutes at 25° C., pH 7.5, 0.75 mM MAS substrate, 1% DMSO
Experimental: Compounds are tested for their capacity to inhibit recombinant human MetAP2 activity using the following assay.
Human recombinant MetAP2 expressed in Sf9 cells followed by affinity purification and EDTA treatment to remove endogenous active site cation was dialysed against MnCl2 to produce the manganese enzyme used in the assay. The assay was carried out for 30 minutes at 25° C. in 50 mM HEPES buffer containing 100 mM NaCl, pH 7.5 the presence of 0.75 mM Methionine-Alanine-Serine (MAS) substrate and 50 μg/ml amino acid oxidase using a dilution of purified MetAP2 giving >3-fold signal:noise. Cleavage of the substrate by MetAP2 and oxidation of free methionine by amino acid oxidase was detected and quantified using fluorescence generated by Amplex red (10-acetyl-3,7-dihydroxyphenoxazine) in combination with horseradish peroxidase which detects H2O2 released during the oxidation step. The fluorescent signal was detected using a multiwell fluorimeter. Compounds were diluted in DMSO prior to addition to assay buffer, the final DMSO concentration in the assay being 1%.
The IC50 is defined as the concentration at which a given compound achieves 50% inhibition of control. IC50 values are calculated using the XLfit software package (version 2.0.5).

T1 sequence (P50579 whole entry): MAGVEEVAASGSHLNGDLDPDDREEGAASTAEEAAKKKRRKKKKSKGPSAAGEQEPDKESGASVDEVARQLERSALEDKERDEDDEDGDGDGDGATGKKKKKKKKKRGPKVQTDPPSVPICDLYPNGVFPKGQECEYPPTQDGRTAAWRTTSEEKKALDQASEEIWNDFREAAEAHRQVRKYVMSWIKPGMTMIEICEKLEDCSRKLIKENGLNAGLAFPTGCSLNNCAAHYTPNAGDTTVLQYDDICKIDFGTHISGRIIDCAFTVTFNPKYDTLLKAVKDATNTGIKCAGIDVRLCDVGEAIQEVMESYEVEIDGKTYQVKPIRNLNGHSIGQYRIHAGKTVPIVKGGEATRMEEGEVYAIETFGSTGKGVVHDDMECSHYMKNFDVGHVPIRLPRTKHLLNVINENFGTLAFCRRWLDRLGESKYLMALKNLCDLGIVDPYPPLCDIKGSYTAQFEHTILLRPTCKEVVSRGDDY

IC50 [nM] | SMILES
> 50 | CCN(CC)CCCc1cc(F)ccc1S(=O)(=O)Nc1cc(F)c2c(c1C(=O)O)OCC1CC21 (racemic) [(1aRS,7bSR)-5-[2-(3-Diethylaminopropyl)-4-fluorobenzenesulfonylamino]-7-fluoro-1,1a,2,7b-tetrahydrocyclopropa[c]chromene-4-carboxylic acid]
< 50 | CCN1CC[C@@H](Cc2cc(F)ccc2S(=O)(=O)Nc2cc(F)c3c(c2C(=O)O)OCC2CC32)C1 (mixture of isomers) [(1aRS,7bSR)-5-[2-((R)-1-Ethylpyrrolidin-3-ylmethyl)-4-fluorobenzene-sulfonylamino]-7-fluoro-1,1a,2,7b-tetrahydrocyclopropa[c]chromene-4-carboxylic acid]
> 50 | CCN(CC)C/C=C\c1cc(F)ccc1S(=O)(=O)Nc1c(F)cc2c(c1C(=O)O)OCC1CC21 (racemic) [(1aRS,7bSR)-5-[2-((Z)-3-Diethylaminoprop-1-enyl)-4-fluorobenzene-sulfonylamino]-6-fluoro-1,1a,2,7b-tetrahydrocyclopropa[c]chromene-4-carboxylic acid]
< 50 | CCN(CC)C/C=C\c1cc(F)ccc1S(=O)(=O)Nc1cc(F)c2c(c1C(=O)O)OCC1CC21 (racemic) [(1aRS,7bSR)-5-[2-((Z)-3-Diethylaminoprop-1-enyl)-4-fluorobenzenesulfonyl-amino]-7-fluoro-1,1a,2,7b-tetrahydrocyclopropa[c]chromene-4-carboxylic acid]
